Data on 2 compounds can be found in paper PMC7897990, “TriTOX: A novel Trichomonas vaginalis assay platform for high-throughput screening of compound libraries” (International Journal for Parasitology: Drugs and Drug …, 2021).

The test system of one data set is T. vaginalis. Kind of data set: Medium-throughput (MTS) confirmatory dose-response growth assay, T. vaginalis. It is filed as cell-based, Trichomonas vaginalis. Conditions: 48 h; for activity against T. vaginalis in MTS, in words: 10-point dilution series, 96-well; for IC50: Trichomonas vaginalis, 96-well, 10,000 cells/mL in 50 μL, mean ± SEM, >10 = no appreciable activity at highest dose. As for the experimental part:
(§1) For microtiter plate assays, trichomonads were grown in anaerobic conditions within GasPak EZ anaerobe pouches with fresh anaerobic sachets. Working reagent of the chromogen was phenol red (Sigma) in a 1% w/v working solution in phosphate buffered saline (PBS), which was filter sterilised. Chromogen absorbance was monitored at 570 nm on an absorbance microplate reader after plates were allowed to equilibrate in atmospheric conditions at room temperature for at least 5 min.
(§2) After absorbances were measured, data were processed as followed unless indicated otherwise in the text. […] Prism 8 (GraphPad) was used to plot dose-response curves and calculate IC50 values, using a least squares regression, log[inhibitor] vs normalised response (variable slope, four parameters) model. Where replicate plates were used, data for dose-response curves were plotted as the mean±SD of these replicates.
(§3) A selection of 17 compounds assayed in the high-throughput screen (HTS) for T. vaginalis which were available through BioAustralis were obtained for validation of inhibitory in/activity in our optimised medium-throughput format. For this, a 10-point serial dilution was used for drug-susceptibility testing to calculate IC50 values of ‘hit’ compounds. Mtz was used as a positive control. Each screen was performed with 3 technical replicates and a minimum of 2 biological replicates in both T. vaginalis and T. foetus using assay conditions of seeds of 10,000 cells/mL in 50 μL, with absorbance measured at 48 h. Dose response curves and IC50 were calculated for each compound as described above in Section 2.3.

Another data set deals with T. foetus. Kind of data set: Medium-throughput (MTS) confirmatory dose-response growth assay, T. foetus. It is filed as cell-based, Tritrichomonas foetus. Conditions: 48 h; for IC50: Tritrichomonas foetus, 96-well, 10,000 cells/mL in 50 μL, mean ± SEM, >10 = no appreciable activity at highest dose. As for the experimental part:
as §1, §2, §3

The test system of data set [1] is Trichomonas vaginalis G3 trophozoites. Conditions: HTS, parasite screen at 1 µg/mL; for T.vaginalis_Absorbance_Rep1: replicate 1, raw absorbance; for T.vaginalis_Absorbance_Rep2: replicate 2, raw absorbance.
Data set [2] deals with nontumorigenic neonatal foreskin fibroblast (NFF) cell line.
The subject of data set [3] is Trichomonas vaginalis G3 trophozoites. Put plainly: microbe, parasite or virus in culture. Conditions: 48 h.
Data set [4] concerns Staphylococcus aureus (ATCC 25923). It is filed as cell-based. Conditions: 5 μg/mL.
The subject of data set [5] is Bacillus subtilis (ATCC 6633). It is filed as cell-based. Conditions: 5 μg/mL.
Setting [6] is: read-out: T.vaginalis_%inb_Rep1.
Where [7] appears, read: read-out: T.vaginalis_%inb_Rep2.

Like-named read-outs stand apart in the source and are kept apart here.

What is called IC50 is the concentration that inhibits the measured activity by half. Higher therefore signals weaker potency. Consider `CN1C(=O)[C@]23CC4=CC=C[C@H](O)[C@H]4N2C(=O)[C@@]1(CO)SS3` [Gliotoxin, gliotoxin, reference compound], for which the “activity against T. vaginalis in MTS, in words” value with T. vaginalis is on record as “no activity”. Further, the IC50 in the data set with T. vaginalis and in the data set on T. foetus was > 10 µM each time. This compound also registered a T.vaginalis_Absorbance_Rep1 in data set [1] of 2.103. The T.vaginalis_Absorbance_Rep2 in data set [1] is 1.862. For the same compound, the NFF_Activity result in data set [2] (NFF_NS1 screen at 5 µg/mL) was “A (active (A) compounds having >25% inhibitory activity)”. Further, the inhibition of growth at 1 µg/mL in data set [3] (setting [6]) amounted to 71%; in data set [3] (setting [7]), 78.7%.

As to `CO[C@@H]1[C@H](OC(=O)/C=C/C=C/C=C/C=C/C(=O)O)CC[C@]2(CO2)[C@H]1[C@@]1(C)O[C@@H]1CC=C(C)C` [Fumagillin, fumagillin, reference compound], the “activity against T. vaginalis in MTS, in words” value with T. vaginalis is “near nanomolar potency”; with T. vaginalis (listed as fumagillin), “true positives”. Besides, the IC50 in the data set on T. vaginalis stood at 0.26 ± 0.11 µM; in the data set with T. foetus it was 0.18 ± 0.03 µM. Besides, in the data set on T. foetus (10-point dilution series, 96-well), the “activity against T. foetus in MTS, in words” value is recorded as “near nanomolar potency”. Besides, the “antibacterial activity against Staphylococcus aureus” value in data set [4] is “no anti-bacterial”. The “antibacterial activity against Bacillus subtilis” value in data set [5] is “no anti-bacterial”. This compound also came in with a T.vaginalis_Absorbance_Rep1 in data set [1] of 1.617. The same compound showed a T.vaginalis_Absorbance_Rep2 in data set [1] of 1.25. In addition, the “cytotoxic activity (NFF)” value in data set [2] is listed as “no anti-bacterial nor cytotoxic activity”. In addition, the inhibition of growth at 1 µg/mL was 48.9% in data set [3] (setting [6]) and 45.5% in data set [3] (setting [7]).
